Assays:
[1] = molecular target: T1, wild type (WT) MET kinase (Homo sapiens, UniProt P08581); experiment: Kinase inhibition experiment (HTRF KinEASE-TK kit), wild-type MET; type: biochemical; details: 10 concentrations, 3-fold dilution
T1 construct: purchased Carna 08-151
Method in brief: (§1)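 Wild-type or mutant MET pre-incubated 10 min with compound (10 concentrations, 3-fold dilutions, duplicates), then TK-substrate-biotin/ATP added for 50 or 10 min at room temperature in buffer with 5 mM MgCl2, 1 mM DTT, 1 mM MnCl2. HTRF read at 665/615 nm; % inhibition vs controls, IC50 by nonlinear sigmoidal fit.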

MET F1200I = molecular target: T2, MET F1200I (Homo sapiens, UniProt P08581, F1200I); experiment: Kinase inhibition experiment (HTRF KinEASE-TK kit), mutant MET F1200I; type: biochemical; details: 10 concentrations, 3-fold dilution
T2 construct: purchased Signalchem M52-12GG/Y767-2
Method in brief: as §1

H1993 cell line = experiment: Cell proliferation inhibition experiment (CellTiter-Glo), H1993; type: cell-based; details: Homo sapiens, NCI-H1993, CTG, 72 h
Method: (§2) CellTiter-Glo™ live cell detection kit adopts luciferase as the detection substance, and the luciferase needs the participation of ATP in the luminescence process. CellTiter-Glo™ reagent was added into the cell culture medium and the luminescence value was measured. The light signal is in direct proportion to the amount of ATP in the system, ATP is in direct correlation with number of living cells. Therefore, the proliferation of cells can be detected by detecting the content of ATP with CellTiter-Glo kit.
(§3) In the experiment, the proliferation inhibition effect of the prepared compounds on tumor cell lines Hs746T, EBC-1 and H1993 was measured by a celltiter-glo (CTG) method, and 50% inhibition concentration IC50 was calculated.
(§4) The compounds were determined on the selected cells, the solvent control was set and a total of 10 concentrations were detected, 2 replicates per concentration.
(§5) a) Cells in the logarithmic growth phase were harvested and counted by a […]. The cell viability was detected by a trypan blue exclusion method to ensure that the cell viability was over 90%.
(§6) b) The cell concentration was adjusted; 30 μL of cell suspension was added to a 384-well plate respectively.
(§7) c) Cells in a 384-well plate were incubated overnight at 37° C., 5% CO2 and 95% humidity.
(§8) a) 10 times of drug solution was prepared with the highest concentration of 10 mM, 10 concentrations and 3 times dilution, 10 μL of drug solution was added into each well of a 384-well plate inoculated with cells, and three multiple wells were arranged for each drug concentration. DMSO was the blank control.
(§9) b) The cells in the 384-well plate were incubated for a further 72 h at 37° C., 5% CO2 and 95% humidity before CTG analysis.
(§10) a) The CTG reagent was melted and the cell plate was equilibrated to room temperature for 30 min.
(§11) b) An equal volume of CTG solution was added to each well.
(§12) c) Cells were lysed by shaking on an orbital shaker for 5 minutes.
(§13) d) The cell plate was left at room temperature for 20 minutes to stabilize the luminescence signal.
(§14) e) The cold light value was read.
(§15) The data was analyzed by GraphPad Prism 8 software, and the dose-response curve was fitted with nonlinear S-curve regression, and the IC50 value was calculated therefrom.
(§16) Cell viability(%)=(Lumdrugs to be tested-Lumblank control)/(Lumcell control-Lumblank control)×100%.

EBC-1 cell line = experiment: Cell proliferation inhibition experiment (CellTiter-Glo), EBC-1; type: cell-based; details: Homo sapiens, CTG, 72 h
Method: as §2, §3, §4, §5, §6, §7, §8, §9, §10, §11, §12, §13, §14, §15, §16

Hs746T cell line = experiment: Cell proliferation inhibition experiment (CellTiter-Glo), Hs746T; type: cell-based; details: Homo sapiens, Hs 746T, CTG, 72 h
Method: as §2, §3, §4, §5, §6, §7, §8, §9, §10, §11, §12, §13, §14, §15, §16

MET D1228N = molecular target: T3, MET D1228N (Homo sapiens, UniProt P08581, D1228N); experiment: Kinase inhibition experiment (HTRF KinEASE-TK kit), mutant MET D1228N; type: biochemical; details: 10 concentrations, 3-fold dilution
T3 construct: purchased Signalchem M52-12IG
Method in brief: as §1

T1 sequence (P08581 25-1390): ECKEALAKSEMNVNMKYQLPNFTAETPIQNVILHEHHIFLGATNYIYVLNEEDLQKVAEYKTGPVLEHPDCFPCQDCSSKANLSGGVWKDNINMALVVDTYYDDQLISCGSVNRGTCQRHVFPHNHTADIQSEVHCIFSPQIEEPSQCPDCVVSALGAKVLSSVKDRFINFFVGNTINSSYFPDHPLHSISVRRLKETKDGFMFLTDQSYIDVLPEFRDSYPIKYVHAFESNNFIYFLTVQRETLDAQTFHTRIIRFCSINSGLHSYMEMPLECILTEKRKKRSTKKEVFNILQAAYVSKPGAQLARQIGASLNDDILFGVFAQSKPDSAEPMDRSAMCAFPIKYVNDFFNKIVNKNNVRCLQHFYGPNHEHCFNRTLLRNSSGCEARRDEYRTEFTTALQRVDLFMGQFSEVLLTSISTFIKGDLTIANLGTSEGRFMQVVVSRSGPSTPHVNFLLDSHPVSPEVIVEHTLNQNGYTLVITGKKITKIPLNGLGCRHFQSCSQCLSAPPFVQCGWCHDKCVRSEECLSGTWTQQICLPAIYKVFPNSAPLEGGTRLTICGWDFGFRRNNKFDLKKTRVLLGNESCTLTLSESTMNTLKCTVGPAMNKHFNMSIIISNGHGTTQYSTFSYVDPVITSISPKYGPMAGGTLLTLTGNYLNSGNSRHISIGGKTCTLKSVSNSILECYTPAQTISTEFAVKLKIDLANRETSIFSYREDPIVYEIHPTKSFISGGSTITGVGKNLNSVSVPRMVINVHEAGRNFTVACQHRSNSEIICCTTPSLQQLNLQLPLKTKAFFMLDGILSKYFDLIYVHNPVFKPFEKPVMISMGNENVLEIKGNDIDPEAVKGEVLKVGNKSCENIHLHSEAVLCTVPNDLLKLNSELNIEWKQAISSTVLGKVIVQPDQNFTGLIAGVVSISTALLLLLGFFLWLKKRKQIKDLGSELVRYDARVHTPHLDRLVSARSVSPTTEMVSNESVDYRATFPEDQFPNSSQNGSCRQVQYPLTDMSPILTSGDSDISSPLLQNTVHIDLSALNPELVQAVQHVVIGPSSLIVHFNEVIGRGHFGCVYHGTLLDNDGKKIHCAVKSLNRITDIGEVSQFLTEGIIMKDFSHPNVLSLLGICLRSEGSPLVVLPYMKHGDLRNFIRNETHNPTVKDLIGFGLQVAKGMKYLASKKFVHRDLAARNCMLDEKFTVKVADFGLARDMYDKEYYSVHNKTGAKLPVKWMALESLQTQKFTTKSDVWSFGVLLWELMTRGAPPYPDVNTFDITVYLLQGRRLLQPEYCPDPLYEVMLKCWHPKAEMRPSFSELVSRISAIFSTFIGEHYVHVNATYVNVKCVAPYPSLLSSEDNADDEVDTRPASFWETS
T2 sequence (P08581 25-1390 F1200I): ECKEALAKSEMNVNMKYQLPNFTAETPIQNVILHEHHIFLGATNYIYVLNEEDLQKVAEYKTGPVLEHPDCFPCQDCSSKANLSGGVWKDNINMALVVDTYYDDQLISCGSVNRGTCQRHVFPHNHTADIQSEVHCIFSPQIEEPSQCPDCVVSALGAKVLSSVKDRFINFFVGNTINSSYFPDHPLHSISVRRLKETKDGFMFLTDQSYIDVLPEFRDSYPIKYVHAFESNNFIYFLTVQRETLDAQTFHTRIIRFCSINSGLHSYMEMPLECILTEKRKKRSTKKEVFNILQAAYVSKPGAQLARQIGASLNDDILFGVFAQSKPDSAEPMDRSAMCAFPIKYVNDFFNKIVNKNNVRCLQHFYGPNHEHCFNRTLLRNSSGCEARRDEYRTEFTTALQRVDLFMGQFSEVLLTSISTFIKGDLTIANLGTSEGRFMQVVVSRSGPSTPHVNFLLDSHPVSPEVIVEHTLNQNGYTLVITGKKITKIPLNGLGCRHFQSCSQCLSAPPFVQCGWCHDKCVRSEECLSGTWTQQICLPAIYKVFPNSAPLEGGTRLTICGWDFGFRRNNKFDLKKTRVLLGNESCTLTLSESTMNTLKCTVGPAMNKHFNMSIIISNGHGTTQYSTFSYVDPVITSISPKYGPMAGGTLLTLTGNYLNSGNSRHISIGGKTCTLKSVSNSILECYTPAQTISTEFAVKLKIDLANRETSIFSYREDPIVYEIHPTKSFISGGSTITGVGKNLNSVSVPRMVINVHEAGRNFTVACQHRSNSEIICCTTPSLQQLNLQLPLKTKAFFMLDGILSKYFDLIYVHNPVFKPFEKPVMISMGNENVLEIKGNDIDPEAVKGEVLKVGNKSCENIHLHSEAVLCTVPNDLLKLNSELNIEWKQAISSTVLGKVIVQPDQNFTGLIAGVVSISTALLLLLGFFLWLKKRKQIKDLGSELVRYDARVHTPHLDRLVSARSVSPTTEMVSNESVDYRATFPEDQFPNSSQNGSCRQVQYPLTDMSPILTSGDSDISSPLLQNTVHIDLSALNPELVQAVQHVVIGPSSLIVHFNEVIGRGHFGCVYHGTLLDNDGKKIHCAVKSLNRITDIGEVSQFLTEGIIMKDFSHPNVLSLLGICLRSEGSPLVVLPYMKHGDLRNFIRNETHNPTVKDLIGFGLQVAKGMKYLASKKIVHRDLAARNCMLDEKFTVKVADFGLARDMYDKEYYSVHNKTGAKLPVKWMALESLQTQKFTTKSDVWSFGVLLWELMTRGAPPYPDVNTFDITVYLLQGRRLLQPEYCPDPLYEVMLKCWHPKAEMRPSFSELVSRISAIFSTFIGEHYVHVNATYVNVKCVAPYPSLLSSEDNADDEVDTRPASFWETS
T3 sequence (P08581 25-1390 D1228N): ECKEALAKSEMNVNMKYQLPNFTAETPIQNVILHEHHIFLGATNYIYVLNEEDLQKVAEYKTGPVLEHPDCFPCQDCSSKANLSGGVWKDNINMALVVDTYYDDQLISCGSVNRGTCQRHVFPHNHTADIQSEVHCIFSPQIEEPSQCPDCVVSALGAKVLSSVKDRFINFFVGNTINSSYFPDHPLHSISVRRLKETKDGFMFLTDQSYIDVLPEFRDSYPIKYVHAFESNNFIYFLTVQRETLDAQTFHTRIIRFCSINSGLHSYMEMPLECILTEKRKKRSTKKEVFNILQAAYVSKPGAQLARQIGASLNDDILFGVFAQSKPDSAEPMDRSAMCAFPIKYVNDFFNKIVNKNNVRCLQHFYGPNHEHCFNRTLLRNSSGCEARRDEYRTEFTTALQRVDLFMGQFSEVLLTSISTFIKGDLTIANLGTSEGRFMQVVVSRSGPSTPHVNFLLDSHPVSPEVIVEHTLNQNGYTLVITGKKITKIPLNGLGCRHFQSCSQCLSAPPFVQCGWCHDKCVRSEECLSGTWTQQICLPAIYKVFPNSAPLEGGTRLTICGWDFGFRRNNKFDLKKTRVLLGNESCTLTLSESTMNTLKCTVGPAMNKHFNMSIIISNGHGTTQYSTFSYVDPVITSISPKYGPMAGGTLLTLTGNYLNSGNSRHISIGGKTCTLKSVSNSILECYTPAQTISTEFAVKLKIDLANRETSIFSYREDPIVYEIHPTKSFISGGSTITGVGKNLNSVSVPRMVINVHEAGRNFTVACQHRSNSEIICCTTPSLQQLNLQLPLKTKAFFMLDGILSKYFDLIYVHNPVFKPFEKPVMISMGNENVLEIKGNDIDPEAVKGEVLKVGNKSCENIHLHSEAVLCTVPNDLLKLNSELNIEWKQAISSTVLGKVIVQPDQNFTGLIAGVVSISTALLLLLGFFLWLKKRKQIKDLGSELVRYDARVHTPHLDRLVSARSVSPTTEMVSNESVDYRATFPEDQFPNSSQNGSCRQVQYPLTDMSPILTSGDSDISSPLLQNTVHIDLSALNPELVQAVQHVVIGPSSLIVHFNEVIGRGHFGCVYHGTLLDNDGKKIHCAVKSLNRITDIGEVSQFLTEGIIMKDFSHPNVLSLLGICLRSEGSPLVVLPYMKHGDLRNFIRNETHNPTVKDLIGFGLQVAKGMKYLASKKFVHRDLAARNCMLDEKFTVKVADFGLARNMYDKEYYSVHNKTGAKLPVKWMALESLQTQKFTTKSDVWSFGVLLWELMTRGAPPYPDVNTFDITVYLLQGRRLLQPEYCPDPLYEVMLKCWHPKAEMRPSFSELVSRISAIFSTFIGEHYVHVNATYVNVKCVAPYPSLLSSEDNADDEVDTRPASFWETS

Row | IC50 [1] [nM] | IC50 (MET F1200I) [nM] | IC50 (H1993 cell line) [nM] | IC50 (MET D1228N) [nM] | Compound | IC50 (EBC-1 cell line) [nM] | IC50 (Hs746T cell line) [nM]
1 | 1.6 | 0.6 | 29.3 | 38.5 | COc1ccc(C(=O)Nc2ccc(Oc3ccnc4[nH]nc(N[C@H](C)CO)c34)c(Cl)c2)[n+]([O-])c1-c1ccc(F)cc1 [Final product 138] | 9.4 | 8.7
2 | 20.4 | 187 | 204 | 62 | O=C(Nc1ccc(Oc2ccnc3[nH]cc(-c4cccnc4)c23)c(F)c1)c1ccc(Cl)c(-c2ccc(F)cc2)[n+]1[O-] [Final product 185, reference compound] | 133 | 155

Reference: patent US20250092033A1, “HETEROAROMATIC NITROGEN-OXIDE COMPOUND, PREPARATION METHOD THEREFOR, AND USE THEREOF” (BEIJING AVISTONE BIOTECHNOLOGY CO., LTD., priority 2021, published 2025)
